# How the values were obtained:
# pregnant rats (fetuses) = assay: Teratogenicity test in pregnant rats (single oral dose on day 8.5 of gestation; fetuses examined day 19-19.5); format: in vivo, rat
# Method: All-trans retinoic acid glucuronide was tested for teratogenicity in pregnant rats.
# The retinoic acid glucuronide dissolved in vegetable oil. Equivalent amount of all-trans retinoic acid was also dissolved in the vegetable oil. Groups of pregnant rats were dosed orally with either retinoid glucuronide or retinoic acid on day 8.5 of gestation. […] The rats were killed on day 19.5 of a 21 day gestational period, and the fetuses were examined for viability, growth, and developmental abnormalities.
# Rats that became pregnant during the same night were selected for the study. The rats were divided into 3 groups. Rats in Group 1 received orally 55 mg of the all-trans retinoic acid glucuronide (equivalent to 35 mg of retinoic acid) or a very large dose of 108 mg of the glucuronide in peanut oil. Rats in Group 2 received orally 35 mg of all-trans retinoic acid in peanut oil. Rats in Group 3 received no retinoid and served as control. The rats were then allowed to grow normally and on day 19, they were killed and fetuses were examined.
# [1] = cited from earlier work
# Solubility in water = format: physicochemical; settings: all-trans retinoyl β-glucuronide
# β-glucuronidase = assay: Hydrolysis by β-glucuronidase (from E. coli); format: biochemical; settings: phosphate buffer pH 6.8, 0.5-2 hrs
# Method: An analytically pure sample of retinoyl β-glucuronide was obtained by HPLC of the above preparation on a Whatman ODS-3 column (M9, 50 cm) using methanol/water (7:3) containing 10 mM ammonium acetate at a flow rate of 3 ml/min. Retinoyl β-glucuronide (tR =49.7 min) separated from traces of isomers or anomers (tR =46.4 min). The eluate carrying retinoyl β-glucuronide was diluted with water and made just acidic with 0.1N HCl. The product was extracted with ethyl acetate. The extract was washed with water, dried over anhydrous sodium sulfate, and then evaporated to dryness. The residue was dissolved in a small volume of diethyl ether and all-trans retinoyl β-glucuronide was precipitated with hexane. The solid was separated and dried. All-trans retinoyl β-glucuronide:m.p. 142°-143° C. (darkens at 125° C.); UVmax 360 nm (E1cm =1065) in methanol and 365 nm in water. The ^1 H-NMR, IR and Mass spectra and C, H analysis results were consistent with the structure.
# HL-60 cells = settings: cited from earlier work; for activity in the HL-60 systems assay: compared with retinoic acid and retinol
# human fetus = settings: oral, 0.5 to 2 mg/kg body weight per 24 hours; cited from earlier work
smiles,measurement,setting,value
"CC1=C(/C=C/C(C)=C/C=C/C(C)=C/C(=O)O)C(C)(C)CCC1 [Retinoic acid, all-trans retinoic acid, reference compound]",outcome of pregnancy / embryos,"pregnant rats (fetuses); same large doses of retinoic acid, oral",did not carry the pregnancy to term--all the embryos died and were being resorbed
same,water solubility,[1],not water-soluble
"CC1=C(/C=C/C(C)=C/C=C/C(C)=C/C(=O)O[C@@H]2O[C@H](C(=O)O)[C@@H](O)[C@H](O)[C@H]2O)C(C)(C)CCC1 [Retinoyl β-glucuronide, All-trans retinoyl β-glucuronide]",condition of pups,"pregnant rats (fetuses); rat, in vivo, po",All the pups were normal and live
same,"teratogenicity, observation in words","pregnant rats (fetuses); rat, in vivo, po",did not show any sign of teratogenicity
same,solubility in water,Solubility in water,soluble in water
same,product of incubation with β-glucuronidase,β-glucuronidase,generated retinoic acid
same,activity in the HL-60 systems assay,HL-60 cells,activity similar to retinoic acid and retinol
same,"cytotoxicity to HL-60 cells, less than all-trans retinoic acid","HL-60 cells; in vitro, vs all-trans retinoic acid, Gallup et al. and Zile et al.",50%
"CC1=C(/C=C/C(C)=C/C=C/C(C)=C\C(=O)O)C(C)(C)CCC1 [isotretinoin, 13-cis form of retinoic acid]",teratogenicity at typical clinical doses,human fetus,highly teratogenic
"CC1=C(/C=C/C(C)=C/C=C/C(C)=C/COC2O[C@H](C(=O)O)[C@@H](O)[C@H](O)[C@H]2O)C(C)(C)CCC1 (some centres unmarked) [retinol glucuronide, reference compound]",activity in the HL-60 systems assay,HL-60 cells,activity similar to retinoic acid and retinol
CC1=C(/C=C/C(C)=C/C=C/C(C)=C/CO)C(C)(C)CCC1 [retinol],water solubility,[1],water-insoluble

# Source: patent US5061723A, “Non-teratogenic vitamin A preparation for women of child-bearing age” (Iowa State University Research Foundation, Inc., priority 1989, dated 1991)
